# Source: ChEMBL document CHEMBL1201862, “PubChem BioAssay data set” (2004)
# Counter-ions that a name gives are not always drawn. Activity calls are given as the source filed them.
# Assays:
# Escherichia coli [1] = experiment: microbe, parasite or virus in culture
# Escherichia coli [2] = experiment: microbe, parasite or virus in culture; remark: listed apart in the source
# [3] = tested on: Streptococcus sp. 'group A'; experiment: growth inhibition of control SK(-) GAS strain, dose response, counter-screen for streptokinase expression inhibitor project, luminescence, kanamycin, BacTiterGlo, confirmation (AID 1900); type: functional, organism-based
# Beta-galactosidase = Beta-galactosidase (Escherichia coli, UniProt Q8VNN2); experiment: PubChem AID 485352; type: functional
# Sequence of Beta-galactosidase (Q8VNN2 whole entry): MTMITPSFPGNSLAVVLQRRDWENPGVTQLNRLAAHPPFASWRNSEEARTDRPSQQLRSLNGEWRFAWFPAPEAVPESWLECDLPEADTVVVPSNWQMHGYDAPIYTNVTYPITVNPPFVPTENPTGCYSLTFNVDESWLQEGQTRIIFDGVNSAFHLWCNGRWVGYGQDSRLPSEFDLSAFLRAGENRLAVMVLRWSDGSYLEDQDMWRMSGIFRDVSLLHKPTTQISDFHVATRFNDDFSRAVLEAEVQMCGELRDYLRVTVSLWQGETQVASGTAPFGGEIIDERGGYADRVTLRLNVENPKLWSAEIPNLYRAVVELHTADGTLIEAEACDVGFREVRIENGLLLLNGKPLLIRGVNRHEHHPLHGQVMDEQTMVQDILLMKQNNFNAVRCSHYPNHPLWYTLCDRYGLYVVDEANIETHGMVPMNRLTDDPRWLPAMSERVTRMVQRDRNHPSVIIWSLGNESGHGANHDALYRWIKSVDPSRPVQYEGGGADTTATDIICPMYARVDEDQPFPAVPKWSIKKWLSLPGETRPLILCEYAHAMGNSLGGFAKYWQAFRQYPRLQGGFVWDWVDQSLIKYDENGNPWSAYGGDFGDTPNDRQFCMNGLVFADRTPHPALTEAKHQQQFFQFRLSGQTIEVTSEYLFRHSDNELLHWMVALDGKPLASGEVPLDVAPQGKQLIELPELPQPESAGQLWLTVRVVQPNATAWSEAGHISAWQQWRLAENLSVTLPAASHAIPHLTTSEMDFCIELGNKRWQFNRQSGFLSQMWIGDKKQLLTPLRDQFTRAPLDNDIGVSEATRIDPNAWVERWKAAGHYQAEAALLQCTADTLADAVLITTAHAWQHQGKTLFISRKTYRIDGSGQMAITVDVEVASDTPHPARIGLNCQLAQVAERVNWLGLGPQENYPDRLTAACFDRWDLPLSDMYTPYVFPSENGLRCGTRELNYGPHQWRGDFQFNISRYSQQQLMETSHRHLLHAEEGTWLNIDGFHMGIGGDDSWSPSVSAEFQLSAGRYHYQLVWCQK
# [4] = inhibitors of intracellular T. cruzi replication, confirmation, NIH3T3 host cells, beta-gal luminescence (AID 2044); type: functional, cell-based;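 note: intracellular parasites grown in NIH/3T3 mouse fibroblasts as host cells; luminescent beta-galactosidase reporter signal from transgenic T. cruzi replicating inside host cells; inhibitors lower the luminescence signal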
# [5] = target: Type-1 angiotensin II receptor (Homo sapiens, UniProt P30556); experiment: AT1 receptor antagonists, dose response, selectivity assay for APJ receptor antagonist project, cell-based, uHTS hits (AID 463214); type: functional;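 note: antagonist potency against angiotensin II stimulated AT1 response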
# Sequence of Type-1 angiotensin II receptor (P30556 whole entry): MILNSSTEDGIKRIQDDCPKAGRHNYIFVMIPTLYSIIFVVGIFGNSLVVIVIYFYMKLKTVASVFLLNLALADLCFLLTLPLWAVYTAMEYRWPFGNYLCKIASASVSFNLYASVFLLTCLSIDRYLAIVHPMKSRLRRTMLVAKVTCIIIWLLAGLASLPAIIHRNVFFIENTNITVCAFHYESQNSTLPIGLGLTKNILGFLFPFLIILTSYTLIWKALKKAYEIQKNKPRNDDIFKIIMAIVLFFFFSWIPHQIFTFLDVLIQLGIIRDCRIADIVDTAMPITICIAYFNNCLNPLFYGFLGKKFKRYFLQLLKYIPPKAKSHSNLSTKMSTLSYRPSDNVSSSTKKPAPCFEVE
# [6] = cytotoxicity toward NIH3T3 fibroblasts, dose response, counter-screen, cell-based, ATP luminescence, mouse fibroblasts (AID 2010); type: functional;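 note: cells exposed to compound for about 90 hours before reading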
# Streptococcus = experiment: Group A Streptococcus viability loss, dose response, counter-screen for streptokinase expression inhibitor project, luminescence, BacTiterGlo (AID 1915); type: functional, organism-based;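 note: potency for reduction of bacterial viability or growth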
# INS1 = experiment: beta cell apoptosis inhibitors, cytokine rescue, dose response, luminescence, retest (AID 449756); type: functional, cell-based; settings: Rattus norvegicus;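 note: cell death triggered by IL-1 beta plus TNF-alpha plus IFN-gamma mixture; protective hits raise ATP signal compared with cytokine alone wells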
# [7] = target: T1, DNA repair and recombination protein RAD54-like (Homo sapiens, UniProt Q92698); experiment: inhibitors of human RAD54 branch migration, confirmation, biochemical, fluorescence, cherry-picked samples, dose series (AID 651657); type: functional
# T1 sequence (Q92698 whole entry): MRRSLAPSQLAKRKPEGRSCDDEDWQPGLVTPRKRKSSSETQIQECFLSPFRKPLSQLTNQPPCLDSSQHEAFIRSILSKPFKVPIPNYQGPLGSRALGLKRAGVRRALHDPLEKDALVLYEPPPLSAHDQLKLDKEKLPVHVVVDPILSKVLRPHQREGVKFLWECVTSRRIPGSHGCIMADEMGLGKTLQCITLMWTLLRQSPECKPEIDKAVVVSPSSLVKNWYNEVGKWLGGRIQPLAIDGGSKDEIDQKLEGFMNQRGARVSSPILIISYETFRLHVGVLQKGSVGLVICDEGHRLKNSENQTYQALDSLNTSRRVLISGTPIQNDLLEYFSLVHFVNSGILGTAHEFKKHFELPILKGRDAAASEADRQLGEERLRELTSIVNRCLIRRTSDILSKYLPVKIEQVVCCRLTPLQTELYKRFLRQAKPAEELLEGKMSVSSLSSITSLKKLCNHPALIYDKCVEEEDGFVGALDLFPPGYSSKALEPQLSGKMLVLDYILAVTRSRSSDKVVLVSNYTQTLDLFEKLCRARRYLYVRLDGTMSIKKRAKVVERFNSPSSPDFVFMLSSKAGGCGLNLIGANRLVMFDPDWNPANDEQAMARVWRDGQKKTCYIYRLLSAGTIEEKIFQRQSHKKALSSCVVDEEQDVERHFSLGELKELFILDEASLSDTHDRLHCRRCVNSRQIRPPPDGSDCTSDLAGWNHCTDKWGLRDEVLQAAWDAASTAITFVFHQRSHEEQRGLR
# Mu-type opioid receptor [8] = target: T2, Mu-type opioid receptor (Homo sapiens, UniProt P35372); type: functional, cell-based
# T2 sequence (P35372 whole entry): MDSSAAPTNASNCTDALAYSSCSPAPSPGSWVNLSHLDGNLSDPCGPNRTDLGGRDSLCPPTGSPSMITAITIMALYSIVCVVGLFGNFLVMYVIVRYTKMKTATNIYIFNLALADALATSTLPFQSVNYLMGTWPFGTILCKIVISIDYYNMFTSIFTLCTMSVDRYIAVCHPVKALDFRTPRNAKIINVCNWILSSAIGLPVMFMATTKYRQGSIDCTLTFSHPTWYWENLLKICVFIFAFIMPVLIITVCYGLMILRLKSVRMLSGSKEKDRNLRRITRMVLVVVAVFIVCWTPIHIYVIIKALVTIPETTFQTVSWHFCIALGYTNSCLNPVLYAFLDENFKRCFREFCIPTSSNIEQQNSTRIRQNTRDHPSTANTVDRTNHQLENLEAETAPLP
# [9] = target: 5-hydroxytryptamine receptor 2A (Mus musculus, UniProt P35363); type: functional, cell-based;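 note: CHO-K1 cells with tagged receptor and beta-arrestin; agonist potency measured as compound-induced activation of the receptor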
# Sequence of 5-hydroxytryptamine receptor 2A (P35363 whole entry): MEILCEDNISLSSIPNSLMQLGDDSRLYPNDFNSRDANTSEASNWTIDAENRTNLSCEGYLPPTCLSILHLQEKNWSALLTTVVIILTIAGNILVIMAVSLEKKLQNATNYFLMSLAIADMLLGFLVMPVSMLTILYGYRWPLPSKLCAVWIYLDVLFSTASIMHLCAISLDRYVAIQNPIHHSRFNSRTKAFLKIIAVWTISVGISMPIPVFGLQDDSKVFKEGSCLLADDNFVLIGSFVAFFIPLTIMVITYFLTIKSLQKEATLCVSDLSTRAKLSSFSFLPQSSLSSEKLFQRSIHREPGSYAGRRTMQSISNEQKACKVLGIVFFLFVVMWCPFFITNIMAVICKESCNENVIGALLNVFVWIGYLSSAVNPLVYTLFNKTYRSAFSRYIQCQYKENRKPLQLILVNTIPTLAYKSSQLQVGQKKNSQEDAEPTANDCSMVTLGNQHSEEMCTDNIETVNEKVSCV
# [10] = target: Voltage-gated inwardly rectifying potassium channel KCNH2 (Homo sapiens, UniProt Q12809); settings: Potency;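 note: confirmatory quantitative high-throughput screen measuring inhibition of hERG channel activity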
# Sequence of Voltage-gated inwardly rectifying potassium channel KCNH2 (Q12809 whole entry): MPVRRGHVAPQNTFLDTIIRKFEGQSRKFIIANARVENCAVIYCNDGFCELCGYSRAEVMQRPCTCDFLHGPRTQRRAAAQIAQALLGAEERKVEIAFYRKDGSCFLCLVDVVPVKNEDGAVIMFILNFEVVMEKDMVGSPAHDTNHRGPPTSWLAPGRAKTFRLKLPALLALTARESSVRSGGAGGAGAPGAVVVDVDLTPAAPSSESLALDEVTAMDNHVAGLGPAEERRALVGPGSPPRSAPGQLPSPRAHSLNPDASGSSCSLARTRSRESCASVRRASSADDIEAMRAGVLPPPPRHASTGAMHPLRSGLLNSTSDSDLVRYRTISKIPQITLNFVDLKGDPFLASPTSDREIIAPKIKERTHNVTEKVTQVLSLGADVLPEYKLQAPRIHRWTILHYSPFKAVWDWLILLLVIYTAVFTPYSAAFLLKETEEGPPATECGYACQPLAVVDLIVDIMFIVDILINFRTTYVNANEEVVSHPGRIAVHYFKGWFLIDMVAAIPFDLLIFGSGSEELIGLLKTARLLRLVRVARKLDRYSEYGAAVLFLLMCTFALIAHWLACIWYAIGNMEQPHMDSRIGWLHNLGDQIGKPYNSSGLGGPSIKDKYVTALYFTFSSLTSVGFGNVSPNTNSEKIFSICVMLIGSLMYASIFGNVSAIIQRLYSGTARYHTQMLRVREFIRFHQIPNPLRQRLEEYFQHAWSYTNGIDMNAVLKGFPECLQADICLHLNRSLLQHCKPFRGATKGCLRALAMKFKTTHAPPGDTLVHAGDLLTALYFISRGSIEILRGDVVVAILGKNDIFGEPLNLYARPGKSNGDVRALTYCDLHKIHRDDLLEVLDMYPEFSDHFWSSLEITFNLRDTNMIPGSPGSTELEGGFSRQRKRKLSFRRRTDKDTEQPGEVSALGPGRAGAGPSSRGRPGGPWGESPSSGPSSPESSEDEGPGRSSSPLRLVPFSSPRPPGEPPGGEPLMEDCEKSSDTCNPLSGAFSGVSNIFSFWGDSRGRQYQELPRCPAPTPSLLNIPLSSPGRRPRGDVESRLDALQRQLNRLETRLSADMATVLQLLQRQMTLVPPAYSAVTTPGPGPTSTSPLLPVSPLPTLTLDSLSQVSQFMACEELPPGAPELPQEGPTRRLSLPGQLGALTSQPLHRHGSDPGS
# Trypsin = Trypsin (Sus scrofa, UniProt P00761); experiment: porcine trypsin inhibitors, dose response, selectivity assay for Rce1 protease inhibitor project, biochemical, quenched peptide fluorescence, cherry-pick (AID 488789)
# Sequence of Trypsin (P00761 whole entry): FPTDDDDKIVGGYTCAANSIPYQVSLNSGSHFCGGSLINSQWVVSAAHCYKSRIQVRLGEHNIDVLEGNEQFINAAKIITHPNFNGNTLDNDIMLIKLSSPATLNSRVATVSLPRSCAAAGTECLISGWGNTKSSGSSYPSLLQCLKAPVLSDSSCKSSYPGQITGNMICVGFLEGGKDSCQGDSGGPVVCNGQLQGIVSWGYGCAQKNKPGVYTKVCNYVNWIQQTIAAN
# CAAX prenyl protease 2 [11] = target: T3, CAAX prenyl protease 2 (Saccharomyces cerevisiae S288c, UniProt Q03530); type: biochemical
# T3 sequence (Q03530 whole entry): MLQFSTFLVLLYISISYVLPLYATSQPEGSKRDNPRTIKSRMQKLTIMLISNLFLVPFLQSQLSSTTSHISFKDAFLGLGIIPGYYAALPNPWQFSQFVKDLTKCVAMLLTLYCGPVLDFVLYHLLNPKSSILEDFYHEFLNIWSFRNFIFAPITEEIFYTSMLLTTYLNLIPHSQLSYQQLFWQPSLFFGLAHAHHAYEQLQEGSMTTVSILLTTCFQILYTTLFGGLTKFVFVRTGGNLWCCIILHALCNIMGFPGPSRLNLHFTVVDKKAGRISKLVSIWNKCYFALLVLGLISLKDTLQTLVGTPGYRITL
# CAAX prenyl protease 2 [12] = target: CAAX prenyl protease 2 (Homo sapiens, UniProt Q9Y256); experiment: human Rce1 protease inhibitors, dose response, biochemical, yeast membranes, quenched-peptide fluorescence, cherry-pick (AID 588849)
# Sequence of CAAX prenyl protease 2 (Homo sapiens, UniProt Q9Y256) (Q9Y256 whole entry): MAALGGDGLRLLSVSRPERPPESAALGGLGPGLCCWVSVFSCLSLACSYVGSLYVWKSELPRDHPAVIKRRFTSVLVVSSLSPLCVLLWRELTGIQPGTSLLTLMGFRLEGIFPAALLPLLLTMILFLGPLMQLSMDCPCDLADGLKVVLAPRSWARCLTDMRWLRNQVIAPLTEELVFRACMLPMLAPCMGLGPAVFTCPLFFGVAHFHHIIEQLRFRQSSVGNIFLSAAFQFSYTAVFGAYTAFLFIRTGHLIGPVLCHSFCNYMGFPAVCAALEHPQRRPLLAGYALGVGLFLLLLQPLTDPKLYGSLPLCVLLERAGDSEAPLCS
# HEK293 = experiment: cells; type: functional, cell-based; settings: Homo sapiens
# [13] = target: T4, Nuclear receptor subfamily 0 group B member 1 (Homo sapiens, UniProt P51843); experiment: Luminescence-based cell-based high throughput dose response assay for inhibitors of the orphan nuclear receptor subfamily 0, group B, member 1 (DAX1; NR0B1). [Related pubchem assays (depositor defined):AID504766, AID504790]; type: functional
# T4 sequence (P51843 whole entry): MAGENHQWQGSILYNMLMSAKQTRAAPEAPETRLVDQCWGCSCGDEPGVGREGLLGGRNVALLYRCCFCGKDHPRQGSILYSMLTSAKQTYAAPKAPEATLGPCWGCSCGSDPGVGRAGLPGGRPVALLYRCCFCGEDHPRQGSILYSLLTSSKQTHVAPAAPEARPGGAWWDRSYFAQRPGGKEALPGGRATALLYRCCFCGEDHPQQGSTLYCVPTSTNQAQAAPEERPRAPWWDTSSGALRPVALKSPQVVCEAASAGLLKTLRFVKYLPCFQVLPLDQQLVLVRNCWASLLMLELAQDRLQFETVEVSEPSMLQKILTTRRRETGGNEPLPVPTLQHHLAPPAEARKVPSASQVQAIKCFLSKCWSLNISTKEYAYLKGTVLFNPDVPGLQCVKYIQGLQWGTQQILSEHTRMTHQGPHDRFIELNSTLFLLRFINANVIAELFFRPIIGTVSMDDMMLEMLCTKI
# cells [14] = type: functional, cell-based
# cells [15] = type: functional, cell-based; remark: listed apart in the source
# [16] = target: T5, Microphthalmia-associated transcription factor (Homo sapiens, UniProt O75030); experiment: TRPM1 promoter luciferase signal decrease, dose response, MITF inhibitor project, cell-based, SK-MEL-5, cherry-picked, set 3 (AID 493073); type: functional
# T5 sequence (O75030 whole entry): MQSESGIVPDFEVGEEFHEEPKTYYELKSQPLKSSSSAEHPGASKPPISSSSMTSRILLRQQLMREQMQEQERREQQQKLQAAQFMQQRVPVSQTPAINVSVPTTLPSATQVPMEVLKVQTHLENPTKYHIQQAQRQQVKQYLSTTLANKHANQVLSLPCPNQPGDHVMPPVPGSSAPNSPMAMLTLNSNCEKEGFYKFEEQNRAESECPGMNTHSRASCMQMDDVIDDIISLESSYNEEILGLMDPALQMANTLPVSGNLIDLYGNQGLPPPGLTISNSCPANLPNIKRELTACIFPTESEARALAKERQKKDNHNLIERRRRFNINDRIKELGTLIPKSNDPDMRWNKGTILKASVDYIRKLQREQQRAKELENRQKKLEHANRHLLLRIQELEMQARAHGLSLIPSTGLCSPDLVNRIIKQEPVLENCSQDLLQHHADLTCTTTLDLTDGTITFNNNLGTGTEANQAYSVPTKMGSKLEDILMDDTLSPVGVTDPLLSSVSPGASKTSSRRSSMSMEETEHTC
# [17] = target: T6, Short transient receptor potential channel 4 (Mus musculus, UniProt Q9QUQ5); experiment: mouse TRPC4 channel activators, dose response, cell-based, HEK293 TRPC4/mu-opioid, Fluo-4 calcium (AID 434937); type: functional
# T6 sequence (Q9QUQ5 whole entry): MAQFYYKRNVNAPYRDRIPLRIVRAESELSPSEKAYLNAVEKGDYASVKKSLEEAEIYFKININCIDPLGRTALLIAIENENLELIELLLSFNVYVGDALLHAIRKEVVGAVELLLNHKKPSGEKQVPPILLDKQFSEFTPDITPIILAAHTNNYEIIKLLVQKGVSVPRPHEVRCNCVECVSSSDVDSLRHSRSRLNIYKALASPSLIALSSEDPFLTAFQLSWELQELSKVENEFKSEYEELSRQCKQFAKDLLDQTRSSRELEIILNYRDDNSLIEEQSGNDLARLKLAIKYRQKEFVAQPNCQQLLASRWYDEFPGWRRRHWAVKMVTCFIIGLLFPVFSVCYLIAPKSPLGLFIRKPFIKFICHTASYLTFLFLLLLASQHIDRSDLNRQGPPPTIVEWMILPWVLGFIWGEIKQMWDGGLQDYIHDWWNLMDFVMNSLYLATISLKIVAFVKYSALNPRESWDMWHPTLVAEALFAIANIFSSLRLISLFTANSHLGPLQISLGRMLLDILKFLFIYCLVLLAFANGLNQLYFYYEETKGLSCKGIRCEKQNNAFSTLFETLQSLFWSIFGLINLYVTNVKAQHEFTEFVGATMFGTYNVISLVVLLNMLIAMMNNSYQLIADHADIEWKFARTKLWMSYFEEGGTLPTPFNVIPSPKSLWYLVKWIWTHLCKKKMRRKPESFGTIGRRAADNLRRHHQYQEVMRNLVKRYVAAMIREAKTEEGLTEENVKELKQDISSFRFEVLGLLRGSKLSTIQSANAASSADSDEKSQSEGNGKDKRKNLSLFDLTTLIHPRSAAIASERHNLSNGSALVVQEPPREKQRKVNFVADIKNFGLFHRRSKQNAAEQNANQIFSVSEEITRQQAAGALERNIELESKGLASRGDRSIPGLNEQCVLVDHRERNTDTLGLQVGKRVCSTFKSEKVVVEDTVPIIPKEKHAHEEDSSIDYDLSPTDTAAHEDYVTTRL
# [18] = target: Delta-type opioid receptor (Homo sapiens, UniProt P41143); experiment: Counterscreen for agonists of heterodimerization of the mu 1 (OPRM1) and delta 1 (OPRD1) opioid receptors: Luminescence-based cell-based high throughput dose response assay to identify agonists of OPRD1 homodimerization. [Related pubchem assays (depositor defined):AID504326, AID504355, AID504692, AID504904, AID504905]; type: functional
# Sequence of Delta-type opioid receptor (P41143 whole entry): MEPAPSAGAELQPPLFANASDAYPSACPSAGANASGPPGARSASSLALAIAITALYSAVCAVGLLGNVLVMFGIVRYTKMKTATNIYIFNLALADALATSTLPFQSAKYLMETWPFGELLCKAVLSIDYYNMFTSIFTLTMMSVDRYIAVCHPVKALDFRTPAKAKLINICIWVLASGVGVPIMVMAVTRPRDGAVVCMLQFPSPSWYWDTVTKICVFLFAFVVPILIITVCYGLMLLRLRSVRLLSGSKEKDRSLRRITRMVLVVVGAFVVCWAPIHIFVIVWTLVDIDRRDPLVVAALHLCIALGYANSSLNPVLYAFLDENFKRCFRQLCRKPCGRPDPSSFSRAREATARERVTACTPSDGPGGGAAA
# Mu-type opioid receptor [19] = target: T2, Mu-type opioid receptor; experiment: Counterscreen for agonists of heterodimerization of the mu 1 (OPRM1) and delta 1 (OPRD1) opioid receptors: Luminescence-based cell-based high throughput dose response assay to identify agonists of OPRM1 homodimerization.; type: functional
# [20] = target: 5-hydroxytryptamine receptor 5A (Homo sapiens, UniProt P47898); experiment: Counterscreen for agonists of OPRM1-OPRD1 heterodimerization: luminescence-based cell-based high throughput dose response assay to identify agonists of 5-hydroxytryptamine (serotonin) 5A receptor (HTR5A). [Related pubchem assays (depositor defined):AID504326, AID504355, AID504692, AID504904, AID504905]; type: functional
# Sequence of 5-hydroxytryptamine receptor 5A (P47898 whole entry): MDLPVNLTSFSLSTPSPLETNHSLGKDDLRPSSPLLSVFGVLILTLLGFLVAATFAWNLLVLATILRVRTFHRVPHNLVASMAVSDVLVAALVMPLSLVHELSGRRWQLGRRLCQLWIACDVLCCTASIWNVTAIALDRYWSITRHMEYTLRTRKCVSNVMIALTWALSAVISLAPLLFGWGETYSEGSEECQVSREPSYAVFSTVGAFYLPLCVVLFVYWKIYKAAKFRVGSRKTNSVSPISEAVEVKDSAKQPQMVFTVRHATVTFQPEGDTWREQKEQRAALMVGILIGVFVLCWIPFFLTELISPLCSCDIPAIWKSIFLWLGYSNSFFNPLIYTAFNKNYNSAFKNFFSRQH
# H9c2 = experiment: cells; type: functional, cell-based; settings: Rattus norvegicus, H9c2, Myocardium;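 note: confirmatory concentration-response retest of ultra-high-throughput screening hits for modulation of myocardial damage; cell death induced by hydrogen peroxide oxidative stress; compound pretreatment for 60 min then peroxide exposure for 2 h; potency is for protecting the cells against peroxide damage rather than for killing them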
compound,measurement,setting,value
CC(C)(C)NC(=O)c1nn(Cc2ccccc2)c(=O)c2ccccc12,AC50,Escherichia coli [1],29.1 µM (active)
same,AC50,Escherichia coli [2],53.2 µM (active)
CCCN(CCC)c1nc(-c2ccccn2)nc2ccccc12,EC50,[3],1.02 µM (active)
same,EC50,Beta-galactosidase,> 40 µM (inactive)
same,EC50,[4],0.374 µM (active)
same,IC50,[5],23.9 µM (not active)
same,EC50,[6],1.76 µM (active)
same,EC50,Streptococcus,1.85 µM (active)
same,AC50,INS1,1.77 µM (active)
same,AC50,[7],13.3 µM (active)
CCCN1CC[C@@H]2c3cc(O)ccc3CC[C@@H]21,EC50,Mu-type opioid receptor [8],92.5 µM (inactive)
same,EC50,[9],76.1 µM (inactive)
same,AC50,[10],35.5 µM (inconclusive)
CCc1cc(=O)oc2c(C)c(OC(C)C(=O)NC3CC(C)(C)NC(C)(C)C3)ccc12 (stereo not given),AC50,Trypsin,14.1 µM (active)
same,AC50,CAAX prenyl protease 2 [11],17.5 µM (active)
same,AC50,CAAX prenyl protease 2 [12],17 µM (active)
CNCCCC1c2ccccc2C=Cc2ccccc21 [PROTRIPTYLINE HYDROCHLORIDE],AC50,[10],31.6 µM (inconclusive)
O=C(Nc1nc(-c2ccccc2)ns1)c1ccncc1,IC50,HEK293,> 67.5 µM (inactive)
same,IC50,[13],> 67.5 µM (inactive)
CN1c2ccccc2-c2nc3ccccc3n2C1c1cccs1 (stereo not given),AC50,Trypsin,0.989 µM (active)
same,AC50,CAAX prenyl protease 2 [11],4.28 µM (active)
same,AC50,CAAX prenyl protease 2 [12],0.769 µM (active)
COc1cc(C(=O)N/N=C(\c2ccccc2)c2ccccn2)cc(OC)c1OC,EC50,cells [14],10.3 µM (active)
same,EC50,Beta-galactosidase,> 40 µM (inactive)
same,EC50,[4],0.473 µM (active)
same,IC50,[5],> 40 µM (not active)
same,EC50,cells [15],> 350 µM (not active)
same,EC50,[6],0.75 µM (active)
same,AC50,[16],13.8 µM (active)
same,AC50,INS1,0.499 µM (active)
Cc1ccc(C)c(NC(S)=NCC(c2ccccc2)N(C)C)c1 (stereo not given),EC50,[17],0.188 µM (active)
same,EC50,[18],50 µM (inactive)
same,EC50,Mu-type opioid receptor [19],4.15 µM (active)
same,EC50,[20],> 92.5 µM (inactive)
COc1cccc(-c2nn3c(-c4ccccn4)nnc3s2)c1,IC50,H9c2,16.5 µM (active)
same,AC50,Escherichia coli [2],192 µM (active)
Cc1ccccc1NC(S)=NCC(c1cccnc1)N(C)C (stereo not given),EC50,[17],0.0427 µM (active)
same,EC50,[18],74.6 µM (inactive)
same,EC50,Mu-type opioid receptor [19],12.5 µM (inactive)
same,EC50,[20],> 92.5 µM (inactive)
